Measured values reported in ChEMBL document CHEMBL5247666, “The rational design of novel 5-amino-2-oxindole derivatives with antiglaucomic activity” (2023).
Activity calls are given as the source filed them. The rule behind the calls is not given here.

Experiments:
[1] = test system: Oryctolagus cuniculus; experiment: Hypotensive effect in normotensive chinchilla rabbits assessed as maximal effective time administered once to both eyes and measured every hour for 6 hrs by automatic veterinary tonometer based assay; assay type: functional
[2] = test system: Oryctolagus cuniculus; experiment: Hypotensive effect in normotensive chinchilla rabbits assessed as reduction in intraocular pressure administered once to both eyes and measured every hour for 6 hrs by automatic veterinary tonometer based assay relative to control; assay type: functional; set-up: concentration or dose not given beside the values
[3] = test system: Oryctolagus cuniculus; experiment: Hypotensive effect in New Zealand white rabbits assessed as reduction in intraocular pressure at 100 uM administered topically in presence of 6-hydroxydopamine and measured every hour for 8 hrs relative to control; assay type: functional; set-up: scale not given: the % may be the effect or the level left
[4] = test system: Oryctolagus cuniculus; experiment: Hypotensive effect in New Zealand white rabbits assessed as reduction in intraocular pressure at 100 uM administered topically in presence of reserpine and measured every hour for 8 hrs relative to control; assay type: functional; set-up: scale not given: the % may be the effect or the level left
[5] = test system: Oryctolagus cuniculus; experiment: Hypotensive effect in normotensive chinchilla rabbits assessed as reduction in intraocular pressure administered once to both eyes and measured after 6 hrs by automatic veterinary tonometer based assay; assay type: functional, organism-based
[6] = test system: Oryctolagus cuniculus; experiment: Hypotensive effect in normotensive chinchilla rabbits assessed as reduction in intraocular pressure administered once to both eyes and measured after 6 hrs by automatic veterinary tonometer based assay relative to control; assay type: functional; set-up: scale not given: the % may be the effect or the level left

Compound	Time [1] [h]	Activity [2] [%]	Activity [3] [%]	Activity [4] [%]	Activity [5]	Activity [6] [%]
COC(=O)Nc1ccc2c(c1)C(CC(=O)O)C(=O)N2 (stereo unspecified)	3	12	–	–	–	–
CCOC(=O)Nc1ccc2c(c1)C(CC#N)C(=O)N2 (stereo unspecified)	5	8	–	–	–	–
COc1ccc2[nH]cc(CCNC(C)=O)c2c1 [MELATONIN]	3	12	5	5	–	–
COC(=O)Nc1ccc2[nH]cc(CCNC(C)=O)c2c1	–	–	5	5	–	–
CC(C)(C)NC[C@H](O)COc1nsnc1N1CCOCC1 [TIMOLOL]	3	18	–	–	inactive	–
COC(=O)Nc1ccc2c(c1)C(CC#N)C(=O)N2 (stereo unspecified)	2	24	–	–	–	17
